Results taken from US11167007B2, “FOXM1 modulators and uses thereof” (City of Hope, priority 2016, dated 2021).

Columns and labels:
[1] = target: T1, AR (Homo sapiens, UniProt P10275); experiment: FRET-based AR conformation change reporter (CARY) in LNCaP C4 prostate cells; assay type: cell-based; set-up: Full length AR with cyan fluorescent protein (CFP) or yellow fluorescent protein (YFP) fused to either end (CARY); expressed in transfected cells; conditions: LNCaP C4 prostate cancer cells
T1 sequence (P10275 1-920): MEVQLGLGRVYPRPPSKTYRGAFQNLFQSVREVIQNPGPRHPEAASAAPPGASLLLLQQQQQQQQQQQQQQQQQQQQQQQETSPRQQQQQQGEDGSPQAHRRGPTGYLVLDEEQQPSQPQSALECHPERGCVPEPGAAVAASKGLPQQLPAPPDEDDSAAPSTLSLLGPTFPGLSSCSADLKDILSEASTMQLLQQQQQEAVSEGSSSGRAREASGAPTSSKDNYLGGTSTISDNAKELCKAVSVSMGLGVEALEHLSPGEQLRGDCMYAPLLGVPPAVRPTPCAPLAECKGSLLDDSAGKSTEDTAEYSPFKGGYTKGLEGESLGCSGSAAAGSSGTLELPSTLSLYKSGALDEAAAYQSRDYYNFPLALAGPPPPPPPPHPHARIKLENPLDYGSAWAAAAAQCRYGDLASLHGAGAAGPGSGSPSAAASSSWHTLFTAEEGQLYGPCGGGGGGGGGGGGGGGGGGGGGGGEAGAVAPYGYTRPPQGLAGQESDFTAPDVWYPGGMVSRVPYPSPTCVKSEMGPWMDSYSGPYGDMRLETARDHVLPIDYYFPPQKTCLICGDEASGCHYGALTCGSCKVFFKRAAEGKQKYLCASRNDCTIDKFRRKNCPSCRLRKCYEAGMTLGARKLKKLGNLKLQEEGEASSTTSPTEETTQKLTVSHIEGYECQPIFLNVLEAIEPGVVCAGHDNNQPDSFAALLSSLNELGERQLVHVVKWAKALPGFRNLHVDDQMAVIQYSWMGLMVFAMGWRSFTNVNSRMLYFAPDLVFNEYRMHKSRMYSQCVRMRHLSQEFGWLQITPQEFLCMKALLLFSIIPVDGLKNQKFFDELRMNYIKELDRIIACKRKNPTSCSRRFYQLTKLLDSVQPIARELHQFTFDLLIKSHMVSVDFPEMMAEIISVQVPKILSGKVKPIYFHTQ
Experimental: Creation of stable C-AR-Y reporter cell lines. Cell lines listed above were either transfected with a plasmid or a virus containing the CFP-AR-YFP construct preceding an IRES and hygromycin resistance gene and clonal stable cell lines selected. Qualification criteria for the transfected cell lines were described by Jones et al, ACS Chem Biol, 3(7):412-8 (2008).
Screen for AR-modulators. Screening was performed essentially as described by Jones et al, ACS Chem Biol, 3(7):412-8 (2008). Briefly, C-AR-Y reporter GTI-7 were transferred to 96 well plates and treated with library compounds for 24 hours. […] The compounds to be tested were from the NCI/DTP Open Chemical Repository's Approved Oncology Drugs Set II, Diversity Set II and Mechanistic Set. […] After 24 hours, medium was aspirated and FRET was measured as previously described using a monochromator-based fluorescence plate reader (M1000, Tecan, Inc.). Jones et al, ACS Chem Biol, 3(7):412-8 (2008). […]
In order to identify potential cell-type selective AR modulators, the FRET-based assay of AR conformation change was utilized. […] This produces an accurate and quantifiable read-out of AR activity. […] Candidate hits were then further evaluated by dose response. […] In addition to FRET, AR transcriptional activity was also assessed in several cell lines by transfecting cells with a luciferase reporter driven by the human PSA promoter. […]

[2] = test system: AR; experiment: Western blot of AR levels in GT1-7 CARY cells; assay type: cell-based, murine
Source text: Western Blot. Cell lysates was separated on a 6% SDS page gel and transferred to a nitrocellulose membrane. The membrane was blocked for one hour in 5% skim milk dissolved in TBS-T and probed with the following antibodies ([…]): FoxM1 (rabbit, GeneTex), AR: 441 (mouse, Santa Cruz Biotechnology), β-catenin (rabbit 9562, Cell Signaling Technology), p84 (mouse, GeneTex) and actin (mouse, Santa Cruz Biotechnology). Horse radish peroxidase linked secondary antibodies were used along with ECL reagents for visualization. Western blots were quantified using Quantity One analysis software (BioRad).
It has been previously reported that thiostrepton causes decreased levels of FOXM1. Hegde et al, Nat Chem, 3(9):725-31 (2011); Gartel, Front Oncol, 3:150 (2013). […] The nuclear association between FOXM1 and β-catenin increases the transcriptional activity of both factors. Zhang et al, Cancer Cell, 20(4):427-42 (2011). β-catenin is a key AR coactivator in a variety of cells. Yang, J Biol Chem, 277(13):11336-44 (2002); Truica et al, Cancer Res, 60(17):4709-13 (2000). The inventors believed that thiostrepton could inhibit AR activity by limiting access to nuclear β-catenin via FOXM1 depletion. […] As expected, control actin protein was observed primarily in cytoplasmic fraction.

C=C(NC(=O)C(=C)NC(=O)c1csc(C2=N[C@@H]3c4csc(n4)[C@H]4NC(=O)c5csc(n5)[C@H]([C@](C)(O)[C@@H](C)O)NC(=O)[C@H]5CSC(=N5)/C(=C/C)NC(=O)[C@H]([C@@H](C)O)NC(=O)c5csc(n5)[C@]3(CC2)NC(=O)[C@H](C)NC(=O)C(=C)NC(=O)C(=C)NC(=O)[C@H](C(C)C)N[C@@H]2C=Cc3c([C@H](C)O)cc(nc3[C@H]2O)C(=O)O[C@@H]4C)n1)C(N)=O [NSC285116, siomycin A]
AR inhibitor activity in words ([1]; listed as Siomycin A): little to no activity | AR inhibitor activity in words ([1]; listed as siomycin): not as sensitive

C=C(NC(=O)C(=C)NC(=O)c1csc(C2=N[C@@H]3c4csc(n4)[C@H]4NC(=O)c5csc(n5)[C@H]([C@](C)(O)[C@@H](C)O)NC(=O)[C@H]5CSC(=N5)/C(=C/C)NC(=O)[C@H]([C@@H](C)O)NC(=O)c5csc(n5)[C@]3(CC2)NC(=O)[C@H](C)NC(=O)C(=C)NC(=O)[C@H](C)NC(=O)[C@H]([C@@H](C)CC)N[C@@H]2C=Cc3c([C@H](C)O)cc(nc3[C@H]2O)C(=O)O[C@@H]4C)n1)C(N)=O [thiostrepton]
AR levels (Western blot) [2]: not consistently decreased
